A value given as a limit tells only on which side of the number the result lay.

The text below walks through data of patent publication US10981926B2 (Janssen Pharmaceutica NV, priority 2016, dated 2021).

Holding throughout (type): cell-based
Assay [1] has as its target T1, F876L mutant Androgen Receptor (AR-F876L) (Homo sapiens (Human), UniProt P10275, F877L). The experiment in a line: LNCaP-AR-F876L ANT reporter assay (antagonist mode). The conditions noted are these: for IC50: pIC50 = −Log10(IC50 in Molar), read-out: LNCaP-AR-F876L ANT pIC50 (converted); for Emax: read-out: LNCaP-AR-F876L ANT MAX % Inh. A general note: Reporter assays use an easily measured gene product as a stand-in for the process of interest.

Assay [2] has as its target T2, wild-type Androgen Receptor (AR-wt) (Homo sapiens (Human), UniProt P10275). Put plainly: LNCaP-AR-wt ANT reporter assay (antagonist mode). The conditions noted are these: for IC50: pIC50 = −Log10(IC50 in Molar), read-out: LNCaP-AR-wt ANT pIC50 (converted); for Emax: read-out: LNCaP-AR-wt ANT MAX % Inh.
In assay [3] the target is T1, F876L mutant Androgen Receptor (AR-F876L). Put plainly: LNCaP-AR-F876L AG reporter assay (agonist mode). The conditions noted are these: for EC50: pEC50 = −Log10(EC50 in Molar), read-out: LNCaP-AR-F876L AG pEC50 (converted); for Emax: read-out: LNCaP-AR-F876L AG MAX % Stim.
Assay [4] concerns the target T2, wild-type Androgen Receptor (AR-wt). Put plainly: LNCaP-AR-wt AG reporter assay (agonist mode). The conditions noted are these: for EC50: pEC50 = −Log10(EC50 in Molar), read-out: LNCaP-AR-wt AG pEC50 (converted); for Emax: read-out: LNCaP-AR-wt AG MAX % Stim.
Setting [5] is: maximum % inhibition of R1881 control response over the tested concentration range.
[6] abbreviates: maximum % stimulation (agonist response) over the tested concentration range.
Where [7] appears, read: antagonist mode, maximum % inhibition of R1881 control response over tested concentration range.
Where [8] appears, read: agonist mode, maximum % stimulation over tested concentration range.

T1 sequence (P10275 whole entry F877L): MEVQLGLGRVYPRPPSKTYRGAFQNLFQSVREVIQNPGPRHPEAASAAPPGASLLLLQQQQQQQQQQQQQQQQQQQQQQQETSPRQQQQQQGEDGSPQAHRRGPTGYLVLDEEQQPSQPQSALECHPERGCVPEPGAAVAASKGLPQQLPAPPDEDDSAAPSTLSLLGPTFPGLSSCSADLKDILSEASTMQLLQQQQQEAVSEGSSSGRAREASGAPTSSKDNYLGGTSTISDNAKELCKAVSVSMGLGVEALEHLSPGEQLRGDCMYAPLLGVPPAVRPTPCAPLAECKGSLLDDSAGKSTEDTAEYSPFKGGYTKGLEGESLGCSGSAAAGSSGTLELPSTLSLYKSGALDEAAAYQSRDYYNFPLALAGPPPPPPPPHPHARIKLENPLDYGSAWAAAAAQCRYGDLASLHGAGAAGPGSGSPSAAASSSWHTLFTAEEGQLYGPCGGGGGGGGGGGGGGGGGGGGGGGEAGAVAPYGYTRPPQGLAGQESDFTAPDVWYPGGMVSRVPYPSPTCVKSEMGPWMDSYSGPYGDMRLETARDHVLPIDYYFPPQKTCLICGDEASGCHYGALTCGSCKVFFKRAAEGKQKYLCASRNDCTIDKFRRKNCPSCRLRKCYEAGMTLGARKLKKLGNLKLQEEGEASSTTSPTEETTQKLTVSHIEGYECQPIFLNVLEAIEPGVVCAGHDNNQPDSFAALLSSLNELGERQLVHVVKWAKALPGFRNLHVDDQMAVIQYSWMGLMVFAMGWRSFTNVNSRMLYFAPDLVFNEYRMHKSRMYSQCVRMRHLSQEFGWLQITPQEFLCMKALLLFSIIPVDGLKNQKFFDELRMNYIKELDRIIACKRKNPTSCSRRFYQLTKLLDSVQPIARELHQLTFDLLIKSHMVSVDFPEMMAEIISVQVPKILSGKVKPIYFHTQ
T2 sequence (P10275 whole entry): as the sequence (P10275 whole entry F877L) above, with L877F counted along it

Take `CC(C)(C)OC(=O)N1CCC(Cn2cc3cc(N4C(=S)N(c5cnc(C#N)c(C(F)(F)F)c5)C(=O)C45CCC5)ccc3n2)CC1` [Cpd 122, tert-Butyl 4-[[5-[6-[6-cyano-5-(trifluoromethyl)-3-pyridyl]-5-oxo-7-thioxo-6,8-diazaspiro[3.4]octan-8-yl]indazol-2-yl]methyl]piperidine-1-carboxylate]: the IC50 in assay [1] (antagonist mode) and in assay [2] (antagonist mode) was 282 nM throughout. In addition, the Emax in assay [1] (setting [5]) was 96.4%; in assay [2] (setting [5]), 98%; in assay [3] (setting [6]), 0.7%; in assay [4] (setting [6]), 0.3%. For the same compound, the EC50 in assay [3] (agonist mode) and in assay [4] (agonist mode) was over 15.1 µM throughout.
As for `CN1CC[C@H](CNC(=O)c2ccc(N3C(=S)N(c4cnc(C#N)c(C(F)(F)F)c4)C(=O)C34CCC4)cc2)C1` [Cpd 206, 4-[6-[6-cyano-5-(trifluoromethyl)-3-pyridyl]-5-oxo-7-thioxo-6,8-diazaspiro[3.4]octan-8-yl]-N-[[(3R)-1-methylpyrrolidin-3-yl]methyl]benzamide], the Emax in assay [1] (setting [7]) worked out at 99.3%; in assay [2] (setting [7]), 101%; in assay [3] (setting [8]) it was 0.1%; in assay [4] (setting [8]), 0.1%. In addition, the IC50 in assay [1] (antagonist mode) was 617 nM; in assay [2] (antagonist mode) it was 851 nM. Also, the EC50 in assay [3] (agonist mode) and in assay [4] (agonist mode) was over 15.1 µM in each case.
For `N#Cc1ncc(N2C(=O)C3(CCC3)N(c3ccc4c(cnn4C4CCNCC4)c3)C2=S)cc1Cl` [Cpd 182, 3-chloro-5-[5-oxo-8-[1-(4-piperidyl)indazol-5-yl]-7-thioxo-6,8-diazaspiro[3.4]octan-6-yl]pyridine-2-carbonitrile], the results for the IC50 in assay [1] (antagonist mode) and in assay [2] (antagonist mode) were 191 nM and 550 nM, respectively. Besides, the Emax worked out at 102% in assay [1] (setting [5]), 103% in assay [2] (setting [5]), 0.1% in assay [3] (setting [6]) and 0% in assay [4] (setting [6]). Moreover, the EC50 in assay [3] (agonist mode) and in assay [4] (agonist mode) was over 15.1 µM throughout.
For the compound `Cc1cc(N2C(=O)C3(CCC3)N(c3ccc(N4CCNC4=O)cc3)C2=S)cnc1C#N` [Cpd 9, 3-Methyl-5-{5-oxo-8-[4-(2-oxoimidazolidinyl)phenyl]-7-thioxo-6,8-diazaspiro[3.4]oct-6-yl}pyridine-2-carbonitrile], the IC50 in assay [1] (antagonist mode) is 575 nM; in assay [2] (antagonist mode) it was 1200 nM. In addition, the Emax was 98.4% in assay [1] (setting [5]), 94.2% in assay [2] (setting [5]), 0.5% in assay [3] (setting [6]) and 0.1% in assay [4] (setting [6]). Moreover, the EC50 in assay [3] (agonist mode) and in assay [4] (agonist mode) was over 15.1 µM throughout.
Regarding `N#Cc1ncc(N2C(=O)C3(CCC3)N(c3ccc(O[C@@H]4CCN[C@H](CO)C4)cc3)C2=S)cc1C(F)(F)F` (racemic) [Cpd 223, 5-[8-(2SR,4RS)[4-[[2-(hydroxymethyl)-4-piperidyl]oxy]phenyl]-5-oxo-7-thioxo-6,8-diazaspiro[3.4]octan-6-yl]-3-(trifluoromethyl)pyridine-2-carbonitrile], the Emax in assay [1] (setting [7]) was determined as 100%; in assay [2] (setting [7]), 101%; in assay [3] (setting [8]), 0.4%; in assay [4] (setting [8]) it was 0.5%. Besides, the IC50 in assay [1] (antagonist mode) is 229 nM; in assay [2] (antagonist mode), 372 nM. Further, the EC50 in assay [3] (agonist mode) and in assay [4] (agonist mode) was over 15.1 µM each time.
As for `N#CCN1CCC(Oc2ccc(N3C(=S)N(c4cnc(C#N)c(Cl)c4)C(=O)C34CCC4)cc2)CC1` [Cpd 51, 3-chloro-5-[8-[4-[[1-(cyanomethyl)-4-piperidyl]oxy]phenyl]-5-oxo-7-thioxo-6,8-diazaspiro[3.4]octan-6-yl]pyridine-2-carbonitrile], the IC50 in assay [1] (antagonist mode) was 24.5 nM; in assay [2] (antagonist mode), 53.7 nM. The Emax came out at 101% in assay [1] (setting [5]), 98% in assay [2] (setting [5]), 1.7% in assay [3] (setting [6]) and 2.3% in assay [4] (setting [6]). In addition, the EC50 in assay [3] (agonist mode) and in assay [4] (agonist mode) was over 15.1 µM throughout.
Regarding `CC(=O)N1CCC(n2cc3ccc(N4C(=S)N(c5cnc(C#N)c(C(F)(F)F)c5)C(=O)C45CCC5)cc3n2)CC1` [Cpd 198, 5-[8-[2-(1-acetyl-4-piperidyl)indazol-6-yl]-5-oxo-7-thioxo-6,8-diazaspiro[3.4]octan-6-yl]-3-(trifluoromethyl)pyridine-2-carbonitrile], the Emax in assay [1] (setting [7]) turned out to be 102%; in assay [2] (setting [7]), 102%; in assay [3] (setting [8]) it was 0.1%; in assay [4] (setting [8]), 0.1%. Besides, the IC50 in assay [1] (antagonist mode) and in assay [2] (antagonist mode) was 562 nM in each case. For the same compound, the EC50 in assay [3] (agonist mode) and in assay [4] (agonist mode) was over 15.1 µM throughout.
Regarding `Cn1cnc2cc(N3C(=S)N(c4cnc(C#N)c(C(F)(F)F)c4)C(=O)C34CCC4)ccc21` [Cpd 244, 5-[8-(1-methylbenzimidazol-5-yl)-5-oxo-7-thioxo-6,8-diazaspiro[3.4]octan-6-yl]-3-(trifluoromethyl)pyridine-2-carbonitrile], the Emax in assay [1] (setting [7]) is 101%; in assay [2] (setting [7]), 98.7%; in assay [3] (setting [8]), -0.5%; in assay [4] (setting [8]), 0.2%. Moreover, the IC50 was 245 nM in assay [1] (antagonist mode) and 646 nM in assay [2] (antagonist mode). Besides, the EC50 in assay [3] (agonist mode) and in assay [4] (agonist mode) was over 15.1 µM in each case.
Turning to `N#Cc1ncc(N2C(=O)C3(CCC3)N(c3ccc(CN4CCN(C5CC5)CC4)cc3)C2=S)cc1C(F)(F)F` [Cpd 220, 5-[8-[4-[(4-cyclopropylpiperazin-1-yl)methyl]phenyl]-5-oxo-7-thioxo-6,8-diazaspiro[3.4]octan-6-yl]-3-(trifluoromethyl)pyridine-2-carbonitrile], the Emax in assay [1] (setting [7]) worked out at 101%; in assay [2] (setting [7]), 102%; in assay [3] (setting [8]) it was 0.1%; in assay [4] (setting [8]) it was 0.1%. Also, the IC50 in assay [1] (antagonist mode) is 589 nM; in assay [2] (antagonist mode), 741 nM. In addition, the EC50 in assay [3] (agonist mode) and in assay [4] (agonist mode) was over 15.1 µM throughout.
Regarding `CC(C)(C)OC(=O)N1CC(F)(F)CC1COc1ccc(N2C(=S)N(c3cnc(C#N)c(C(F)(F)F)c3)C(=O)C23CCC3)cc1` (stereo not shown) [Cpd 56, tert-butyl 2-[[4-[6-[6-cyano-5-(trifluoromethyl)-3-pyridyl]-5-oxo-7-thioxo-6,8-diazaspiro[3.4]octan-8-yl]phenoxy]methyl]-4,4-difluoro-pyrrolidine-1-carboxylate], the IC50 was 676 nM in assay [1] (antagonist mode) and 631 nM in assay [2] (antagonist mode). Besides, the Emax was found to be 85.2% in assay [1] (setting [5]), 84.5% in assay [2] (setting [5]), 0.1% in assay [3] (setting [6]) and 0.4% in assay [4] (setting [6]). Further, the EC50 in assay [3] (agonist mode) and in assay [4] (agonist mode) was over 15.1 µM each time.
Take `N#Cc1ncc(N2C(=O)C3(CCC3)N(c3ccc4c(cnn4CCO)c3)C2=S)cc1C(F)(F)F` [Cpd 159, 5-[8-[1-(2-hydroxyethyl)indazol-5-yl]-5-oxo-7-thioxo-6,8-diazaspiro[3.4]octan-6-yl]-3-(trifluoromethyl)pyridine-2-carbonitrile]: the IC50 was 309 nM in assay [1] (antagonist mode) and 1350 nM in assay [2] (antagonist mode). Moreover, the Emax in assay [1] (setting [5]) was found to be 100%; in assay [2] (setting [5]), 100%; in assay [3] (setting [6]) it was 0.2%; in assay [4] (setting [6]), 0.2%. The EC50 in assay [3] (agonist mode) and in assay [4] (agonist mode) was over 15.1 µM in each case.
For the compound `CN1CC(CCOc2ccc(N3C(=S)N(c4cnc(C#N)c(C(F)(F)F)c4)C(=O)C34CCC4)cc2)C1` [Cpd 142, 5-[8-[4-[2-(1-methylazetidin-3-yl)ethoxy]phenyl]-5-oxo-7-thioxo-6,8-diazaspiro[3.4]octan-6-yl]-3-(trifluoromethyl)pyridine-2-carbonitrile], the IC50 in assay [1] (antagonist mode) was 117 nM; in assay [2] (antagonist mode) it was 112 nM. Further, the Emax in assay [1] (setting [5]) is 99%; in assay [2] (setting [5]), 101%; in assay [3] (setting [6]), 0.8%; in assay [4] (setting [6]) it was -0.2%. Moreover, the EC50 in assay [3] (agonist mode) and in assay [4] (agonist mode) was over 15.1 µM in each case.
With `N#Cc1ncc(N2C(=O)C3(CCC3)N(c3ccc(C(=O)NC[C@@H]4CCCNC4)cc3)C2=S)cc1C(F)(F)F` [Cpd 186, 4-[6-[6-cyano-5-(trifluoromethyl)-3-pyridyl]-5-oxo-7-thioxo-6,8-diazaspiro[3.4]octan-8-yl]-N-[[(3R)-3-piperidyl]methyl]benzamide], the Emax in assay [1] (setting [7]) stood at 100%; in assay [2] (setting [7]) it was 99.8%; in assay [3] (setting [8]), 0%; in assay [4] (setting [8]), 0.1%. The IC50 in assay [1] (antagonist mode) is 2240 nM; in assay [2] (antagonist mode) it was 3160 nM. In addition, the EC50 in assay [3] (agonist mode) and in assay [4] (agonist mode) was over 15.1 µM in each case.
As to `N#Cc1ncc(N2C(=O)C3(CCC3)N(c3ccc4c(ccn4C4CCNCC4)c3)C2=S)cc1C(F)(F)F` [Cpd 249, 5-[8-Oxo-5-(1-piperidin-4-yl-1H-indol-5-yl)-6-thioxo-5,7-diaza-spiro[3.4]oct-7-yl]-3-trifluoromethyl-pyridine-2-carbonitrile], the Emax was found to be 103% in assay [1] (setting [7]), 0% in assay [2] (setting [7]), 0% in assay [3] (setting [8]) and 0% in assay [4] (setting [8]). Moreover, the results for the IC50 in assay [1] (antagonist mode) and in assay [2] (antagonist mode) were 316 nM and 407 nM, respectively. For the same compound, the EC50 in assay [3] (agonist mode) and in assay [4] (agonist mode) was over 15.1 µM each time.
